In BindingDB's records for doi:10.1016/j.ejmech.2016.05.062 (University of Siena, 2016):
pEC50: −log10 of the molar value.

Legend:
[1] = Activity at Smo in mouse C3H10T1/2 cells assessed as induction of cell differentiation into osteoblast incubated for 6 days by alkaline phosphatase assay
[2] = Agonist activity at Smo in mouse C3H10T1/2 cells assessed as induction of cell differentiation into osteoblast incubated for 6 days by alkaline phosphatase assay

CCCCCCn1c(=O)c(C(=O)Nc2ccc(C(=O)NCCCC)cc2)c(O)c2ccccc21
pEC50 [1]: 5.24

CCCCCn1c(=O)c(C(=O)Nc2ccc(C(=O)OCCC)cc2)c(O)c2ccccc21
pEC50 [1]: 6.15

CCCCn1c(=O)c(C(=O)Nc2ccc(C(=O)OCCC)cc2)c(O)c2ccccc21
pEC50 [1]: 6.10

CCCCCCn1c(=O)c(C(=O)Nc2ccc(C(=O)OC(C)C)cc2)c(O)c2ccccc21
pEC50 [1]: 5.19

CCCCCCn1c(=O)c(C(=O)Nc2ccc(C(=O)OC(C)(C)C)cc2)c(O)c2ccccc21
pEC50 [1]: 5.51

CCCCCn1c(=O)c(C(=O)Nc2ccc(C(=O)OCC)cc2)c(O)c2ccccc21
pEC50 [1]: 6.05

CCCOC(=O)c1ccc(NC(=O)c2c(O)c3cc(Cl)ccc3n(CCC)c2=O)cc1
pEC50 [1]: 5.31

CCCOC(=O)c1ccc(NC(=O)c2c(O)c3cc(OC)c(OC)cc3n(CCC)c2=O)cc1
pEC50 [1]: 6.44

CCCOC(=O)c1ccc(NC(=O)c2c(O)c3ccccc3n(CCC)c2=O)cc1
pEC50 [1]: 5.59

CNC1CCC(N(Cc2cccc(-c3ccncc3)c2)C(=O)c2sc3ccccc3c2Cl)CC1 (stereo unspecified)
pEC50 [2]: 6.89

CCCCCCn1c(=O)c(C(=O)Nc2ccc(C(=O)O)cc2)c(O)c2ccccc21
pEC50 [1]: 6.22

CCCOC(=O)c1ccc(NC(=O)c2c(O)c3cc(F)ccc3n(CCC)c2=O)cc1
pEC50 [1]: 5.62

CCCOC(=O)c1ccc(NC(=O)c2c(O)c3cc(C)ccc3n(CCC)c2=O)cc1
pEC50 [1]: 5.92

c1ccc2c(Oc3nc(Nc4ccc(N5CCOCC5)cc4)c4ncn(C5CCCCC5)c4n3)cccc2c1 [Purmorphamine]
pEC50 [1]: 6.10

CCCOC(=O)c1ccc(NC(=O)c2c(O)c3cccc4c3n(c2=O)CCC4)cc1
pEC50 [1]: 6.10

CCCCCCn1c(=O)c(C(=O)Nc2ccc(C(=O)OCCC)cc2)c(O)c2ccccc21
pEC50 [1]: 5.92

CCCCCn1c(=O)c(C(=O)Nc2ccc(C(=O)OCCCC)cc2)c(O)c2ccccc21
pEC50 [1]: 6.22

C=CCn1c(=O)c(C(=O)Nc2ccc(C(=O)OCCC)cc2)c(O)c2ccccc21
pEC50 [1]: 5.47

CCCCCCn1c(=O)c(C(=O)Nc2ccc(C(=O)OCC)cc2)c(O)c2ccccc21
pEC50 [1]: 5.44

CCCCCCn1c(=O)c(C(=O)Nc2ccc(C(=O)OCCCC)cc2)c(O)c2ccccc21
pEC50 [1]: 5.82

CCCCCCn1c(=O)c(C(=O)Nc2ccc(C(=O)OCc3ccccc3)cc2)c(O)c2ccccc21
pEC50 [1]: 5.70
